Publication PMC5666843, “Seco-B-Ring Steroidal Dienynes with Aromatic D Ring: Design, Synthesis and Biological Evaluation” (International Journal of Molecular Sciences, 2017)

Target: T1, recombinant human VDR (hVDR, vitamin D receptor) (Homo sapiens, UniProt P11473)
T1 sequence (P11473 1-427): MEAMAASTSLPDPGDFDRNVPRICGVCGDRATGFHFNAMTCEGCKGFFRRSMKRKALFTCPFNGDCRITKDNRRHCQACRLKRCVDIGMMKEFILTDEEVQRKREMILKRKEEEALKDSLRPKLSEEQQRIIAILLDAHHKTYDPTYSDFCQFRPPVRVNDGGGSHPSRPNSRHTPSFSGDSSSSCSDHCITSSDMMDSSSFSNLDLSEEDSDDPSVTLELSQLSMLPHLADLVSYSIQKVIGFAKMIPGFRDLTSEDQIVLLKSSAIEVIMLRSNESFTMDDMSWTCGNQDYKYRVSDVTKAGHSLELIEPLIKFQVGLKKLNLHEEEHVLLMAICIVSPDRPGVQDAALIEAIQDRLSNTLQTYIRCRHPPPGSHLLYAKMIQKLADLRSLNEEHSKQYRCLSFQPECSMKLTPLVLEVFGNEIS
Assay: fluorescence polarization competition assay (PolarScreen)
Format: binding
Conditions: read-out: 6
From the text: fluorescence polarization competition assay (PolarScreen) on recombinant human VDR (hVDR, vitamin D receptor)

## C=C1[C@H](O)C(C)=C(C#CC2=CCCc3c2cccc3[C@H](C)CCCC(C)(C)O)C[C@H]1O [compound 6, (1R,3S,1′′R)-5-[5′-(5′′-Hydroxy-1′′,5′′-dimethylhexyl)-3′,4′-dihydro-naphthalen-1′-ylethynyl]-4-methyl-2-methylene-cyclohex-4-ene-1,3-diol]
  IC50: 28 nM
